Several values for one entry are separate records, joined by “and”; a condition that tells them apart may be missing. Equal values may be shown once.
How the values were obtained:
[1] = tested on: aminopeptidase, endopeptidase, carboxypeptidase; type: in vitro ADME
Procedure: (§1) Enzyme digests were performed using aminopeptidase, endopeptidase, carboxypeptidase, or Drosophila melanogaster Malpighian tubule tissue extract. Peptide digests were performed in triplicate alongside ‘mock’ digests, where protease was substituted with water to determine peptide stability in aqueous media at 37° C. Several peptides were tested, including 1st generation AH56 and 3rs generation AH259. These are biostable in the presence of purified proteases for >24 hours; and for >3 hours to insect tissue extracts which are enriched for proteases.

[2] = type: in vitro ADME, Drosophila melanogaster
Procedure: as §1

M. persicae [3] = assay: Feeding of aphids with peptides in artificial diet (Example 1); type: in vivo, Myzus persicae; details: 10^−5 M
[4] = tested on: bumblebees (Bombus terrestris); assay: Bumblebee acute oral toxicity test; type: in vivo; details: for lethal effect on bumblebees: 1×10^−5 M in 50% sucrose, 0.1% ATPlus, oral; for safety towards B. terrestris in the bumblebee oral toxicity assay: in vivo
M. persicae [5] = assay: Feeding of aphids with peptides in artificial diet (Example 2; peptide screening, honeydew); type: in vivo, Myzus persicae; details: Peptide screening, Table 5
Myzus persicae aphids = assay: Topical application by spraying, Potter Spray Tower (Example 3); type: in vivo; details: 48 hours post spray
[6] = tested on: Drosophila suzukii larvae; assay: Drosophila suzukii larval feeding (Example 8; peptide screening); type: in vivo
CapaR = molecular target: T1, CapaR (Drosophila melanogaster, UniProt Q8ITC7); assay: Measurement of intracellular Ca2+ in S2 cells transfected with CapaR (agonist response); type: cell-based; details: 10^−7 M; activity normalised to that of native Capa2 (designated 100%)
T1 construct: transiently transfected with the apoaequorin ORF; expressed in transfected cells; host or cells: Drosophila melanogaster S2 cells, transient transfection, expression induced with CuSO4
T1 sequence (Q8ITC7 1-477): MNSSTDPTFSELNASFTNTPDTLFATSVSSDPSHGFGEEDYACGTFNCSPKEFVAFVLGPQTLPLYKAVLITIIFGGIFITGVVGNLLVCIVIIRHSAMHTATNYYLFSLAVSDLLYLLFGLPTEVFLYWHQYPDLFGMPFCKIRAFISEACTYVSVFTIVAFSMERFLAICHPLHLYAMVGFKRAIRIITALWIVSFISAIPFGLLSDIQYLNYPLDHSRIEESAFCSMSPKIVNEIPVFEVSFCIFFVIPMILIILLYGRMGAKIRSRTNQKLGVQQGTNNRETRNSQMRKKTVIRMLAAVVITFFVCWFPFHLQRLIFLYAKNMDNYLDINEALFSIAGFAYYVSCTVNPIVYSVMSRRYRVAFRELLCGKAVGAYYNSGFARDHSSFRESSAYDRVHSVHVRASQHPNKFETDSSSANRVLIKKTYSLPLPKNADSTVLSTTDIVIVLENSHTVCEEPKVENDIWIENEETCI
Procedure: Drosophila melanogaster S2 cells, cultured under standard conditions (1) were transiently transfected with the apoaequorin ORF (Radford J C, Davies S A, Dow J A. Systematic G-protein-coupled receptor analysis in Drosophila melanogaster identifies a leucokinin receptor with novel roles. J Biol Chem. 2002; 277:38810-38817) and a receptor ORF construct, and expression induced using CuSO4. Transfected S2 cells were harvested and incubated with 2.5 μM coelenterazine in the dark at RT for 1-2 h as described (ibid). 25,000 cells were then placed in 135 μl Schneider's medium supplemented with 10% FCS in a well of a white polystyrene 96-well plate (Berthold Technologies). Bioluminescence recordings were carried out using a Mithras LB940 automated 96-well plate reader (Berthold Technologies) and MikroWin software. 15 μl of each of different peptides were applied to final concentrations as required.
Peptides were tested at 10^−7M.
At the end of each recording samples were disrupted by the addition of 100 μl lysis solution, and the [Ca^2+] concentrations calculated as previously described (Rosay P, Davies S A, Yu Y, Sozen A, Kaiser K, et al. Cell-type specific calcium signalling in a Drosophila epithelium. J Cell Sci. 1997; 110:1683-1692).
For the Capa1 and Capa2 peptides, the relevant native control peptide (D. melanogaster Capa1 or Capa2 respectively) was used as a control. Control agonist activity was normalised to 100% and activity of neuropeptide analogues is expressed relative to that.

[7] = Table 12, individual bees, 20% sucrose 0.1% ATPlus AH56
[8] = Table 12, 20% sucrose 0.1% ATPlus AH56

Compound | biostable in the presence of purified proteases [1] [h] | biostable to insect tissue extracts enriched for proteases [2] [h] | Feeding Aphid, % lethality in population after adjustment for baseline (M. persicae [3]) [%] | lethal effect on bumblebees [4] | Volume remaining [4, 7] | Volume removed [4, 7] | Volume remaining, group mean [4, 8] [µL] | Volume removed, group mean [4, 8] | safety towards B. terrestris in the bumblebee oral toxicity assay [4] | M. persicae (% Lethality) (M. persicae [5]) [%] | Spray Aphid, % lethality in population after adjustment for baseline (Myzus persicae aphids; 10^−4 M) [%] | Spray Aphid, % lethality in population after adjustment for baseline (Myzus persicae aphids; 10^−5 M) [%] | Feeding D. suzukii, % lethality in population after adjustment for baseline ([6]; 10^−5 M, 48 hr exposure) [%] | D. suzukii (Mean% Lethality ± SD) ([6]; Peptide screening, Table 5, blank control 20.33) [%] | CapaR Ca^2+ Agonist response (CapaR) [%]
H-Ahx-LVAFPRV-NH2 [AH56] | > 24 | > 3 | 30 | No lethal effect | 211 ul (2×) and 295 ul (2×) and 248 ul (2×) and 216 ul (2×) and 178 ul (2×) | 289 and 205 and 252 and 284 and 322 | 229.6 | 270.4 | safe | 30 | 41 | 35 | 51 | 50.63 | 
CC(C)C[C@H](N=C(N(C)C)N(C)C)C(=O)N(C)[C@H](C(=O)N[C@@H](C)C(=O)N[C@@H](Cc1ccccc1)C(=O)N1CCC[C@H]1C(=O)N[C@@H](CCCNC(=N)N)C(=O)N[C@H](C(N)=O)C(C)C)C(C)C [AH259, Guanidyl-L-(Me)V-AFPRV-NH2] | > 24 | > 3 |  | No lethal effect |  |  |  |  | safe |  |  |  |  |  | 12

Source: patent US20240373849A1, “INSECT NEUROPEPTIDE ANALOGUES” (THE UNIVERSITY COURT OF THE UNIVERSITY OF GLASGOW, priority 2020, published 2024)
